Data taken from patent publication US12076341B2, “Use of apoptotic compensatory proliferation signaling vesicles in tissue repair and wound healing” (Rush University Medical Center, priority 2018, dated 2024).
Entries after “also recorded” stand apart in the source; their conditions may differ. Where a SMILES comes first, the peptide text is derived from it. The star is where a group is joined. Cbz = O=C(OCc1ccccc1)*; CH2F = FC*

What was measured:
Type in all cases: cell-based
Hela cells [1] = assay: Proliferation assay by cell counts, adherent Hela cells treated with 16K fraction vesicles; conditions: 16K fraction of Z-VAD treated serum-starved Hela cells; cell count 24 h
Experimental: Generation and Purification of ACPSVs: 7.5×10^6 cells were cultured in 150 mm^2 flasks (TPP) overnight in 25 mL of indicated media. Next day, cells were induced to undergo intrinsic apoptosis by serum-starvation, extrinsic apoptosis apoptosis by treatment with anti-Fas mAb (abcam-ab11881), or anoikis apoptosis by growing the cells detached from the surface in suspension media in Thermo Scientific Nunclon Sphera plates, in the presence or absence of Z-VAD. 24 to 48 h after induction of apoptosis, culture supernatants from serum-fed healthy (Mock) and apoptotic cells were collected and subjected to differential centrifugation. […] The proliferation-inducing effect associated with each fraction was determined by cell counts after growing recipient cells for 24 h at 37° C. in the presence of 5% CO2, using a hemocytometer after trypsin digestion.
Proliferation Assay. […] The next day at the time of treatment with vesicles, the initial cell number per well (0 h) was determined by trypsin digestion and cell counts using a hemocytometer. […] Proliferation rates were determined blindly by cell counts determination using a hemocytometer.

Hela cells [2] = assay: IF time-lapse videomicroscopy of transfected Hela cells (apoptosis, vesicle formation, compensatory proliferation signaling); conditions: cells pre-treated with Z-VAD prior to transfection
[3] = system: human epithelial keratinocytes (HEK); assay: Anoikis apoptosis, vesicle formation and CPS of HEK cells grown in suspension media; conditions: 60 μm Z-VAD
Experimental: HEK primary cells also product Crkl-containing vesicles which mediate CPS in other cells. (FIG. 8A) HEK cells were cultured either seeded (Mock) or induced to undergo anoikis apoptosis by culturing them in suspension media in the presence or absence of Z-VAD. (FIGS. 8A-8B) Supernatants from the indicated cultures were fractionated, as in FIG. 2, and their 16K fractions were evaluated for ACPSV production by Western blotting, using Crkl as a marker for vesicles, whose expression from 3 experiments was evaluated by densitometer and plotted below (FIG. 8A) or by lipid content measurements from 3 experiments in FIG. 8B. (n=3, * p≤ 0.05, ** p≤ 0.01, *** p≤ 0.001, one-way ANOVA). (FIG. 8C) ACPSVs in 16K fraction of apoptotic HEK cells were visualized by DIC. Similar to HeLa and B16 cells, vesicles from apoptotic HEK cells were globular and ranged between 1-1.8 micron in diameter. (FIG. 8D) HEK cells were treated with vesicles (16K fractions) harvested from HEK seeded healthy (Mock) cultures, or HEK grown in suspension media (Apop.), or HEK grown in suspension media in the presence of Z-VAD (Apop.+Z-VAD). 24 h after treatment, the proliferation levels were determined by cell counts and the tabulated data from 3 independent experiments were shown as the Mean±S.D. (** p<0.01, *** p≤ 0.001, one-way ANOVA). […]

Hela cells [4] = assay: Apoptotic cell death of serum-starved Hela cells by flow cytometry; conditions: Z-VAD pretreatment; 24 h serum starvation
Experimental: (§1) (FIG. 2A) Hela cells either received 10% serum (Mock) or were induced to undergo apoptosis by serum-starvation in the presence or absence of Z-VAD. 24 h after serum starvation, apoptotic cell death was assessed by flow cytometry and the tabulated results from 3 independent experiments are shown in (FIG. 2B). (*** p<0.001, One-way ANOVA). (FIGS. 2C-21) Supernatants from the indicated cultures were fractionated by differential centrifugation and evaluated for their Crkl-containing microvesicles (ACPSVs) and CPS. (FIG. 2C) ACPSVs in the 16K fraction of apoptotic cells were visualized by DIC. (FIG. 2D) Vesicle size distribution was determined and plotted (Mean size±S.D.=1.76±1.04 μm, n=822). […] (FIG. 2H) The lipid contents of the vesicles in the 16K fractions of the indicated cultures were measured and the tabulated data from 3 experiments are shown. […] (FIG. 2I) Hela cells were treated with 16K fractions of serum-fed healthy (Mock), serum-starved apoptotic (Apop.), or Z-VAD treated serum-starved (Apop.+Z-VAD) and the proliferation levels were determined by cell count 24 h after treatment. […] 24 h after serum starvation, cells were fixed and analyzed by SEM. […] Five hours after vesicle addition, the fractions of mitotic cells, with no vesicle (NV); with ACPSV only (+AC); with apoptotic body only (+AB); or with a combination of vesicles (+Mix) were assessed by SEM. […]

Hela cells [5] = assay: Vesicle production in 16K fraction of serum-starved Hela cells (Crkl Western blot, lipid content); conditions: Z-VAD pretreatment; Crkl level and lipid content of 16K fraction
Experimental: as §1

`CC(NC(=O)C(NC(=O)OCc1ccccc1)C(C)C)C(=O)NC(CC(=O)O)C(=O)CF` (stereo not drawn) [Z-VAD] (Cbz-Val-Ala-Asp-CH2F; configuration not given here) was tested, and the “CPS in recipient cells” value (Hela cells [1]) was “abrogated”, the “ACPSV formation and release from Crkl-GFP transfected Hela cells” value (Hela cells [2]) was “inhibits apoptosis and vesicle formation; also recorded: not formed or released” and the “apoptosis in HEK cells grown in suspension media” value [3] was “significantly reduced”. The “vesicle formation and CPS in HEK cells grown in suspension media” value [3] was “prevented”, the “apoptosis in serum-starved Hela cells” value (Hela cells [4]) was “significantly reduced” and the “vesicle production in serum-starved cells” value (Hela cells [5]) was “significantly reduced”.
